What was measured:
Conditions in all cases: 24 h at 37° C.
[1] = system: S. aureus; assay: Zone of inhibition around monomer pellets or powder; type: cell-based, Staphylococcus aureus
Description: (§1) ZSB powder was used to show antimicrobial efficacy.

[2] = system: M. luteus; assay: as above; type: cell-based, Micrococcus luteus
Description: as §1

[3] = system: P. aeruginosa; assay: Zone of inhibition around monomer pellets; type: cell-based, Pseudomonas aeruginosa

Compound: O=C1C=CC(=O)[N]1[Ag]([P+](c1ccccc1)(c1ccccc1)c1ccccc1)[P+](c1ccccc1)(c1ccccc1)c1ccccc1 [PSSM, Phosphine Stabilised Silver Maleimide]
- zone of inhibition [1]: sharp ring of inhibition
- zone of inhibition [2]: sharp ring of inhibition
- zone of inhibition [3]: more blurred inhibition zones

From patent publication US20120109286A1, “ANTIMICROBIAL COATINGS” (priority 2009, published 2012)
